# Experiment: Safety of THC in the psoriasis clinical study
# Conditions: human, in vivo
# Description: • Study Duration: 45 days • Population: 10 psoriasis affected subjects • Intervention: THC formulated as a cream with pharmaceutically acceptable carriers applied topically three times a day for 45 days.
# The primary objective in this study was to determine the efficacy and safety of the THC cream. The parameters to detect the efficacy and safety of the medication included relief from the characteristic symptoms of psoriasis like itching, erythema, scaling, infiltration, and the extent of clearance of psoriasis lesions.
substance,measurement,value
Tetrahydrocurcuminoids [THC],Toxic side effects,devoid of toxic side effects

# From patent US20080058426A1, “COMPOSITION AND METHOD FOR TREATING PSORIASIS” (priority 2006, published 2008)
